Reference: the NIST ThermoML archive (doi:10.1016/j.jct.2013.05.003)
± gives the expanded uncertainty stated by the source.

Assay: xn = mol fraction of the nth substance listed
Details: 101.3 kPa, Liquid, fixed-path interferometer

CCOCCCN [3-ethoxy-1-propanamine] + O
speed of sound [m/s]
Details	293.15 K	298.15 K	303.15 K
x1 = 0.0001081	–	1497.2 ± 1.2	1509.6 ± 1.2
x1 = 0.0003191	–	1498 ± 1.2	1510.4 ± 1.2
x1 = 0.0006252	–	1499.4 ± 1.2	1511.6 ± 1.2
x1 = 0.0009424	–	1500.9 ± 1.2	1512.8 ± 1.2
x1 = 0.001284	–	1502.2 ± 1.2	1514.2 ± 1.2
x1 = 0.001947	–	1505.4 ± 1.2	1516.8 ± 1.2
x1 = 0.002912	–	1509.6 ± 1.2	1520.7 ± 1.2
x1 = 0.00392	–	1514 ± 1.2	1524.7 ± 1.2
x1 = 0.005098	–	1519 ± 1.2	1529.2 ± 1.2
x1 = 0.00981	–	1538.8 ± 1.2	1547.2 ± 1.2
x1 = 0.0148	–	1558.4 ± 1.2	1565 ± 1.2
x1 = 0.01956	–	1576 ± 1.2	1580.7 ± 1.2
x1 = 0.02832	–	1604.7 ± 1.2	1606.4 ± 1.2
x1 = 0.03914	–	1633.7 ± 1.2	1631.8 ± 1.3
x1 = 0.05082	–	1657.2 ± 1.3	1651.3 ± 1.3
x1 = 0.06674	–	1676.2 ± 1.3	1666.3 ± 1.3
x1 = 0.09536	–	1681.6 ± 1.3	1667.7 ± 1.3
x1 = 0.1209	–	1668.3 ± 1.3	1653.1 ± 1.3
x1 = 0.1452	–	1650.2 ± 1.3	1633.9 ± 1.3
x1 = 0.1844	–	1617.3 ± 1.3	1600.4 ± 1.3
x1 = 0.2121	1610.5 ± 1.3	1593.4 ± 1.3	1576.1 ± 1.3
x1 = 0.2438	1587.9 ± 1.3	1569.9 ± 1.3	1552.3 ± 1.3
x1 = 0.2923	1557.5 ± 1.3	1539.4 ± 1.3	1521.5 ± 1.3
x1 = 0.361	1518.2 ± 1.4	1499.2 ± 1.4	1480.9 ± 1.3
x1 = 0.4369	1485.9 ± 1.4	1466.9 ± 1.4	1448.1 ± 1.4
x1 = 0.493	1461.7 ± 1.4	1442.5 ± 1.4	–
x1 = 0.4937	1461.8 ± 1.4	1442.6 ± 1.4	1423.4 ± 1.4
x1 = 0.5513	1442.2 ± 1.4	1422.7 ± 1.4	1403.3 ± 1.4
x1 = 0.6214	1421.8 ± 1.4	1402 ± 1.4	1382.3 ± 1.4
x1 = 0.6775	1407.3 ± 1.5	1386.7 ± 1.4	1366.7 ± 1.4
x1 = 0.6943	1402.9 ± 1.5	1383.1 ± 1.5	1363.1 ± 1.5
x1 = 0.7458	1391.1 ± 1.5	1370.8 ± 1.5	1350.5 ± 1.5
x1 = 0.7733	1385.3 ± 1.5	1365.2 ± 1.5	1344.8 ± 1.5
x1 = 0.7947	1380.6 ± 1.5	1360.2 ± 1.5	1339.8 ± 1.5
x1 = 0.8276	1374.1 ± 1.5	1353.6 ± 1.5	1333.2 ± 1.5
x1 = 0.8488	–	1349.3 ± 1.5	–
x1 = 0.8744	1365.1 ± 1.5	1344.6 ± 1.5	1324 ± 1.5
x1 = 0.8993	1360 ± 1.6	1339.3 ± 1.6	1319.2 ± 1.5
x1 = 0.9189	1356.7 ± 1.6	1335.6 ± 1.6	1315.1 ± 1.6
x1 = 0.9411	1352.4 ± 1.6	1331.8 ± 1.6	1311.1 ± 1.6
x1 = 0.9486	1351.3 ± 1.6	1330.7 ± 1.6	1309.8 ± 1.6
x1 = 0.9613	1349 ± 1.6	1327.9 ± 1.6	1307.3 ± 1.6
x1 = 0.9746	–	1325.7 ± 1.6	1304.7 ± 1.6
x1 = 0.9871	1344.3 ± 1.6	1321.5 ± 1.6	1302.4 ± 1.6
x1 = 1	1342 ± 1.6	1321.2 ± 1.6	1300.4 ± 1.6
